This note sets out measurements from patent US8211646B1, “Methods of treating ovarian cancer by modulating SnoN” (University of South Florida, priority 2008, dated 2012).

Holding throughout (assay type): cell-based
The subject of one assay is SnoN. The assay can be described thus: Western analysis of SnoN protein levels. To be noted: for concentration at which induction of SnoN occurred: 18 hours. How it is done: (§1) Proteins were resolved on an 8%, 12%, or 15% SDS-PAGE gel (as appropriate) and electrophoretically transferred to polyvinyldifluoride (PVDF) membranes. After blocking with 5% (w/v) milk in TBST (Tris-Buffered Saline containing 0.1% Tween-20) for one hour at room temperature, membranes were incubated with primary antibodies (at appropriate dilution) overnight at 4° C., followed by extensive washing and incubation for 1 hour with the appropriate horseradish peroxidase-conjugated secondary antibodies (BioRad, Hercules, Calif.). Blots were washed extensively. A rabbit polyclonal EVI1 antibody was obtained (1:3000 dilution, St. Jude's Children's Hospital, Memphis, Tenn.). SnoN rabbit polyclonal (1:1000 dilution), PML, and p21 SMURF2 rabbit polyclonal (1:500 dilution), MRP1 mouse monoclonal (1:500 dilution) and GAPDH mouse monoclonal (1:250 dilution) antibodies were obtained from Santa Cruz Biotechnology (Santa Cruz, Calif.). TGFβRII rabbit polyclonal (1:1000 dilution) antibody was obtained from Strategic Diagnostics (Newark, Del.). Smad2/3 rabbit polyclonal (1:1000 dilution), Beclin-1 rabbit polyclonal (1:1000 dilution), AKT rabbit polyclonal (1:1000 dilution), TAK1 rabbit polyclonal (1:1000 dilution), PARP rabbit polyclonal (1:1000 dilution), Beclin-1 rabbit polyclonal (1:1000 dilution), caspase-3 rabbit polyclonal (1:1000) which detects the pro-caspase form, and ATG5 rabbit polyclonal (1:1000 dilution), LC3-II rabbit polyclonal (1:1000 dilution) antibodies were obtained from Cell Signaling Technology (Danvers, Mass.). The HSP27 mouse monoclonal (1:1000 dilution) antibody was obtained from Stressgen (Ann Arbor, Mich.). Blots were developed using chemiluminescence substrates (Amersham Piscataway, N.J. or BioRad, Hercules, Calif.). Monoclonal PAI-1 antibody was obtained from BD Pharmingen. PSMAD2, total SMAD2/3, p-ERK, p-AKT, and total AKT antibodies were obtained from Cell Signaling Technology. A monoclonal antibody against Arkadia was obtained from Abnova (Taiwan).
Densitometric analysis was performed using the HP Scanjet 5590 and the Image J program (Image Processing and Analysis in Java, NIH Image Software). Bands were selected and the intensity values were normalized to those for GAPDH. The values are presented as fold-changes relative to control siRNA treated cells.
The clinical inhibitors As2O3, geldanamycin (17-AAG) (dissolved in dimethylsulfoxide [DMSO]), and MG132 (dissolved in DMSO) were obtained from Sigma-Aldrich (St. Louis, Mo.), Fisher Scientific (Pittsburgh, Pa.), and Alexis Biochemicals (Farmingdale, N.Y.), respectively. N-acetyl-L-cysteine (NAC; dissolved in media) and Bortezomib (PS-341; dissolved in DMSO) were obtained from Fisher Scientific. 3-Methyladenine (3-MA; dissolved in media) was obtained from MP Biomedicals (Solon, Ohio). Tiron (4,5-Dihydroxy-1,3-benzenedisulfonic acid, dissolved in media) was obtained from Fisher Scientific. zVAD-fmk (dissolved in DMSO) and bafilomycin A (dissolved in DMSO) was obtained from Axxora LLC (San Diego, Calif.). Bovine catalase was obtained from Sigma-Aldrich. HBED and Mn TBAP was obtained from ENZO Life Sciences (Farmingdale, N.Y.). Ovarian cells were plated in 6-well plates at 250,000 cells per well and grown in complete medium. […] For control cells, DMSO (a final concentration of <0.5%) was added to compare appropriately to drugs dissolved in DMSO. After the appropriate incubation time (6 or 18 hours), cell lysates were collected, protein quantified, and SDS-PAGE/western analysis was performed. In addition, for selected studies, RNA was isolated, quantified, and used for qPCR analysis.

In the next assay the test system is SnoN RNA. The assay can be described thus: qPCR of SnoN RNA levels in ovarian cell lines. The conditions noted are these: 5 μM As2O3, 18 hours. The procedure: RNA was isolated using the RNeasy Mini Kit (Qiagen, Valencia, Calif.) from normal, benign, stage I-IV ovarian patient samples and quantitative PCR was performed. A one-step RT-PCR Taqman master mix from Applied Biosystems (Foster City, Calif.) and primers for genes in the 3q26.2 amplicon were obtained using Genebank sequences as well as from Assays on Demand (Hs00180524_m1 (SnoN/SkiL)), with the following primers and probe sets.
Primers/probe sequences for SnoN (Hs00180524_m1), TGFβRII (Hs00234253_m1), and LC3 (Hs00261291_m1) were obtained from Applied Biosystems (Assays by Design).
mRNA levels were determined using the One-Step-Plus Applied Biosystems Detection System or ABI PRISM 7700 Sequence Detection System using β-actin as a reference. PCR conditions were as follows: stage I: 48° C. for 30 min; stage II: 95° C. for 10 min; stage III: [40 cycles] 95° C. for 15 s followed by 60° C. for 1 min Using the correlative method, RNA-fold change in expression was calculated as Ct of gene—Ct of β-actin to generate ΔCt from which ΔCt of the normal sample was subtracted. These values were then converted to log2 values.
The clinical inhibitors As2O3, geldanamycin (17-AAG) (dissolved in dimethylsulfoxide [DMSO]), and MG132 (dissolved in DMSO) were obtained from Sigma-Aldrich (St. Louis, Mo.), Fisher Scientific (Pittsburgh, Pa.), and Alexis Biochemicals (Farmingdale, N.Y.), respectively. N-acetyl-L-cysteine (NAC; dissolved in media) and Bortezomib (PS-341; dissolved in DMSO) were obtained from Fisher Scientific. 3-Methyladenine (3-MA; dissolved in media) was obtained from MP Biomedicals (Solon, Ohio). Tiron (4,5-Dihydroxy-1,3-benzenedisulfonic acid, dissolved in media) was obtained from Fisher Scientific. zVAD-fmk (dissolved in DMSO) and bafilomycin A (dissolved in DMSO) was obtained from Axxora LLC (San Diego, Calif.). […] After the appropriate incubation time (6 or 18 hours), cell lysates were collected, protein quantified, and SDS-PAGE/western analysis was performed. In addition, for selected studies, RNA was isolated, quantified, and used for qPCR analysis.
In general terms: In qPCR the cycle at which signal appears reflects the starting amount.

The next assay relates to HSP27. Put plainly: Western analysis of HSP27. The conditions noted are these: HEY, 18 hours As2O3. The procedure:
as §1, with “The HSP27 mouse monoclonal (1:1000 dilution) antibody was obtained from Stressgen (Ann Arbor, Mich.). Blots were developed using chemiluminescence substrates (Amersham Piscataway, N.J. or BioRad, Hercules, Calif.). Monoclonal PAI-1 antibody was obtained from BD Pharmingen. PSMAD2, total SMAD2/3, p-ERK, p-AKT, and total AKT antibodies were obtained from Cell Signaling Technology. A monoclonal antibody against Arkadia was obtained from Abnova (Taiwan).” left out
The clinical inhibitors As2O3, geldanamycin (17-AAG) (dissolved in dimethylsulfoxide [DMSO]), and MG132 (dissolved in DMSO) were obtained from Sigma-Aldrich (St. Louis, Mo.), Fisher Scientific (Pittsburgh, Pa.), and Alexis Biochemicals (Farmingdale, N.Y.), respectively. […] After the appropriate incubation time (6 or 18 hours), cell lysates were collected, protein quantified, and SDS-PAGE/western analysis was performed. In addition, for selected studies, RNA was isolated, quantified, and used for qPCR analysis.

Consider Arsenic trioxide [As2O3], for which, in the assay on SnoN (HEY and OVCA429, 18 hours, increasing doses), the SnoN/SkiL protein levels result is “significantly increased”. The “concentration at which induction of SnoN occurred” value was more than 25 µM with SnoN (HEY and SKOV3 cells); 10 µM with SnoN (T80 cells). Further, the “time of As2O3 treatment at which induction of SnoN was seen” value in the assay on SnoN (HEY, time course) was determined as 9 h. Also, the “effect on SnoN RNA” value in the assay on SnoN RNA is reported as “little effect”. Further, in the assay with HSP27, the HSP27 expression entry was “increased”.
